Values of other authors in patent US20160143918A1, “DRUG RELEASING AGENT BASED ON beta-SITOSTEROL AND A PREPARATION METHOD THEREOF” (School of Medicine Jiaying University, priority 2014, published 2016).

In the case of `CC[C@H](CC[C@@H](C)[C@H]1CC[C@H]2[C@@H]3CC=C4C[C@@H](O)CC[C@]4(C)[C@H]3CC[C@]12C)C(C)C` [β-sitosterol], the “solubility in organic solvents” value (organic solvents) is listed as “soluble in organic solvents” and the solubility in water (water) is listed as “insoluble in water”.
